≈ marks a conversion by molar mass, not a printed value.

For the data set the following is noted: buffer; pH 7.4; 200.0 µM.
One may read the kinetic solubility as solubility judged after dilution from a stock solution rather than from solid. The molecule `Cc1occc1C(=O)N(C)Cc1nc(-c2ccccc2)no1` displayed a kinetic solubility of 40.9 µg/mL (≈ 138 µM). The value for `CC(C)CC(=O)Nc1sc2c(c1C(=O)O)CCCCC2` was 42 µg/mL (≈ 142 µM); that for `CC(C)C(=O)Nc1oc(-c2ccccc2)cc1C#N` was 10.5 µg/mL (≈ 41.3 µM); that for `COc1cc(C(=O)Cc2nc3ccccc3n2C)cc(OC)c1OC` was over 51.1 µg/mL.

`Cn1cc(C(=O)N2CCOCC2)c2ccccc21` yielded a solubility (kinetic) of over 36.6 µg/mL.

Consider `O=C(O)c1cc([N+](=O)[O-])ccc1NCCc1ccccc1`, for which the solubility (kinetic) is over 42.9 µg/mL.

The molecule `O=C1CNC(=O)N1c1ccc(Cl)cc1` registered a solubility (kinetic) of over 31.6 µg/mL. For the molecule `O=C(OCC(=O)c1ccc(Cl)cc1Cl)c1ccccn1`, the kinetic solubility was over 46.5 µg/mL. On to `COc1cc(C(=O)NCC2CCCCC2)cc(OC)c1OC`, for which the kinetic solubility worked out at 12.8 µg/mL (≈ 41.6 µM). Consider `O=Cc1ccc(-c2ccc([N+](=O)[O-])cc2Cl)o1`, for which the solubility (kinetic) amounted to 5.2 µg/mL (≈ 20.7 µM). The value for `CC(C)(C)OC(=O)N1CCC[C@H]1C(=O)Nc1ccc(C#N)cc1` was 40.7 µg/mL (≈ 129 µM); that for `O=c1cc(CN2CCOCC2)c2cc(Cl)ccc2o1` was over 42 µg/mL; that for `CC(OC(=O)c1cnccn1)C(=O)c1ccccc1` (stereo not drawn) was over 38.4 µg/mL. The molecule `COc1ccccc1NC(=O)C1CCCN1C(=O)NC1CCCCC1` (stereo not drawn) showed a kinetic solubility of 42.4 µg/mL (≈ 123 µM). Consider `CN(C)/C(=N\S(=O)(=O)c1ccccc1)c1ccccc1`, for which the solubility (kinetic) was over 43.3 µg/mL. The molecule `O=C(CCCN1CC=C(n2c(=O)[nH]c3ccccc32)CC1)c1ccc(F)cc1` yielded a solubility (kinetic) of 33.4 µg/mL (≈ 88 µM). Under `CC(=O)c1ccccc1NC(=O)c1ccc(OCc2c(C)noc2C)cc1` stands 2.6 µg/mL (≈ 7.13 µM); under `O=C(NCCC1CCCC1)c1cccs1`, over 33.5 µg/mL. `CCN1C(=O)CC(NCc2ccc(S(N)(=O)=O)cc2)C1=O` (stereo not drawn) displayed a kinetic solubility of over 46.7 µg/mL. Molecule `O=C(COC(=O)c1cccnc1Cl)Nc1ccc(S(=O)(=O)N2CCOCC2)cc1` had a solubility (kinetic) of 57.5 µg/mL (≈ 131 µM). `COc1ccc(NC(=O)c2c(N)no[n+]2[O-])cc1` returned a solubility (kinetic) of 3 µg/mL (≈ 12 µM). The value for `COCCCN(C(=O)C1CCCCC1)c1c(N)n(Cc2ccccc2)c(=O)[nH]c1=O` was 14.3 µg/mL (≈ 34.5 µM); that for `COc1ccc(C2=NOC(C(=O)Nc3ccc4c(c3)OCO4)C2)cc1` (stereo not drawn) was 1.6 µg/mL (≈ 4.7 µM). `N#C/C(=C(/O)CN1CCCC1)c1nc(-c2ccccc2)cs1` yielded a kinetic solubility of over 46.7 µg/mL. The value for `Cc1c(N)cc(N)cc1C(=O)O` was over 24.9 µg/mL; that for `O=S(=O)(c1ccc(Cl)nc1)N1CCN(c2ncccn2)CC1` was 1 µg/mL (≈ 2.94 µM). The value for `Cc1c(C)n(C)c2ccc(C(=O)NCCc3ccco3)cc12` was over 44.5 µg/mL; that for `COC(=O)C(NC(C)=O)(Nc1ccc(C)cn1)C(F)(F)F` (stereo not drawn) was over 45.8 µg/mL; that for `Cc1ccc(C(=O)NC2CCN(C(=O)Nc3ccc(F)cc3)CC2)cc1` was 0.6 µg/mL (≈ 1.69 µM). As for `O=C(NCc1cccnc1)Nc1cccc(Cl)c1Cl`, the solubility (kinetic) is 27.7 µg/mL (≈ 93.5 µM).

Consider `O=C(CCl)NCc1cc(-c2ccc(Cl)cc2)no1`, for which the kinetic solubility came out at 13.2 µg/mL (≈ 46.3 µM). Turning to `Cc1cc(OCCCN2CCCC2)ccc1Cl`, the solubility (kinetic) stood at 26.8 µg/mL (≈ 106 µM). Molecule `COc1ccccc1S(=O)(=O)c1c(C)cc(C)[nH]c1=O` showed a kinetic solubility of over 44 µg/mL.

For the molecule `CC1CCCCC12NC(=O)N(Cc1cc(=O)n3ccsc3n1)C2=O` (stereo not drawn), the solubility (kinetic) is over 52 µg/mL. With `Cc1ccc(OCC(=O)Nc2cc(C(C)(C)C)on2)cc1C`, the kinetic solubility amounted to 3.9 µg/mL (≈ 12.9 µM). Under `Cc1cc2ccccc2cc1CN1CCCCC1` stands 9.6 µg/mL (≈ 40.1 µM). In turn, `COc1ccc(C(=O)NCCc2c[nH]c3ccccc23)cc1OC` gave a kinetic solubility of 32 µg/mL (≈ 98.6 µM). Take `CCOC(=O)C1CCN(C(=O)CSc2nc(N)cc(=O)[nH]2)CC1`: the solubility (kinetic) is over 51.1 µg/mL. `CS(=O)(=O)N1CCC(C(=O)Nc2ccc(F)c(Cl)c2)CC1` showed a solubility (kinetic) of over 50.2 µg/mL. Take `Cc1sc2ncnc(SCC(=O)NC(C)C(C)C)c2c1C` (stereo not drawn): the solubility (kinetic) came out at 4.6 µg/mL (≈ 14.2 µM). As to `CC(C)=C(NC(=O)c1ccccc1)C(=O)NCc1ccccc1`, the kinetic solubility was over 46.3 µg/mL. Under `CC(NC(=O)/C=C/c1ccccc1[N+](=O)[O-])C1CC2CCC1C2` (stereo not drawn) stands 1.2 µg/mL (≈ 3.82 µM). With `Cc1ccc(NC(=O)CN2C(=O)S/C(=C/c3ccncc3)C2=O)cc1`, the solubility (kinetic) came to 2.2 µg/mL (≈ 6.23 µM). `CC(C)c1ccc(NC(=O)N2C[C@H]3C[C@@H](C2)c2cccc(=O)n2C3)cc1` had a solubility (kinetic) of over 52.7 µg/mL. `COc1cc(/C=C/c2onc(C)c2[N+](=O)[O-])cc(OC)c1OC` had a kinetic solubility of under 0.3 µg/mL. The molecule `CC(=O)Oc1ccc(C(=O)Nc2cccc3c2CCCC3)cc1` had a kinetic solubility of 3.4 µg/mL (≈ 11 µM).

Turning to `O=C1CCCN1CCCNc1ncccc1[N+](=O)[O-]`, the kinetic solubility is over 39.6 µg/mL. The value for `Cc1ccc(NC(=O)c2ccc3nccnc3c2)c(C)c1` was over 41.6 µg/mL; that for `O=C(OCC(=O)N1CCCC1)c1ccc(O)cc1` was over 37.4 µg/mL; that for `C=CCNC(=S)N(Cc1ccccc1)Cc1ccccc1` was 7.2 µg/mL (≈ 24.3 µM).

On to `CC(CNC(=O)COC(=O)c1ccco1)c1ccccc1` (stereo not drawn), for which the kinetic solubility is over 43.1 µg/mL. In turn, `O=C1CCCN1CCCNS(=O)(=O)c1cccs1` displayed a solubility (kinetic) of over 43.3 µg/mL.

`CC(NC(=O)CSc1ccccc1)c1ccccc1` (stereo not drawn) came in with a kinetic solubility of 37.1 µg/mL (≈ 137 µM). `S=C(NCCc1ccccc1)Nc1cnc2ccccc2c1`: the solubility (kinetic) worked out at 3.6 µg/mL (≈ 11.7 µM). Under `O=C(/C(=C/c1cccnc1)n1ccnc1)c1ccc(Cl)cc1Cl` stands over 51.6 µg/mL; under `COc1ccc(C(=O)N2CCC(C(=O)NC3CC3)CC2)cc1`, over 45.4 µg/mL.

For the molecule `CCOC(=O)C1=C[C@]2(CC)CCCN3CCc4c(n1c1ccccc41)[C@@H]32`, the solubility (kinetic) turned out to be 35.5 µg/mL (≈ 101 µM). `Cc1ccc2c(c1)/C(=C/c1ccccc1)C(=O)N2`: the solubility (kinetic) was 2.3 µg/mL (≈ 9.78 µM). This solubility kinetic lies about 15-fold lower than the previous one. `CCCCN(C(C)=O)c1ccc(S(=O)(=O)NC2=NCCCCC2)cc1NC(C)=O` gave a solubility (kinetic) of over 63.4 µg/mL. `Cc1ccc(C)c(OCCC(=O)Nc2ccccc2C(=O)NC2CC2)c1` came in with a kinetic solubility of 4.2 µg/mL (≈ 11.9 µM). For the molecule `CC1CN(C(=O)COC(=O)c2ccc(F)cc2Cl)CC(C)O1` (stereo not drawn), the solubility (kinetic) came to 43.1 µg/mL (≈ 131 µM).

Regarding `Cc1ccc(S(=O)(=O)NC2CC(C)(C)NC(C)(C)C2)cc1`, the kinetic solubility was found to be 40.5 µg/mL (≈ 130 µM). The solubility kinetic values of the last two molecules are within 1.5-fold of each other. Under `Cc1ccc(CSCC(=O)NCc2ccco2)cc1` stands 36.8 µg/mL (≈ 134 µM).

Regarding `COc1ccc(CCNC(=O)c2noc(C)c2[N+](=O)[O-])cc1OC`, the kinetic solubility is over 50.3 µg/mL. For the molecule `Cc1ccc(NC(=O)N2CCC(C(=O)c3ccc(F)cc3)CC2)cc1`, the kinetic solubility was found to be 0.6 µg/mL (≈ 1.76 µM). In turn, `Cc1ccc(NC(=O)Nc2ccc3c(c2)C(=O)OC3)cc1Cl` displayed a kinetic solubility of under 0.3 µg/mL. In the case of `O=c1c([N+](=O)[O-])c(N2CCCC2)c2ccccc2n1-c1ccccc1`, the kinetic solubility is 46.7 µg/mL (≈ 139 µM). As to `CCOC(=O)c1ccc(NC(=O)C2CC(O)CN2S(=O)(=O)c2ccc(C)cc2)cc1` (stereo not drawn), the solubility (kinetic) is over 64.9 µg/mL. `Cc1c[n+](CC(=O)c2ccccc2)c(C)cn1.[Br-]` had a solubility (kinetic) of 27 µg/mL.

As to `COCCNC(=O)Nc1ccc(F)cc1`, the solubility (kinetic) was over 31.8 µg/mL. `COc1ccc(C(=O)NC(=S)N2CCOCC2)cc1OC` returned a kinetic solubility of over 46.6 µg/mL. Under `O=C(NCCc1ccc(Cl)cc1)c1ccc(Br)s1` stands 1.2 µg/mL (≈ 3.48 µM). `O=C(NCc1cccnc1)Nc1ccc(Cl)cc1` came in with a solubility (kinetic) of over 39.3 µg/mL. As to `Cc1ccc(CNc2ccccc2C(=O)O)s1`, the solubility (kinetic) turned out to be 23 µg/mL (≈ 93 µM). `O=c1c2ccccc2[nH]c(=S)n1CCN1CCCCC1` came in with a kinetic solubility of over 43.4 µg/mL. `COc1ccccc1CNCC(c1ccccc1)c1ccccc1`: the kinetic solubility was 33.6 µg/mL (≈ 106 µM). Regarding `CCN1C(=O)C(=O)N(CC(=O)N(C)CC(=O)Nc2ccccc2C(F)(F)F)C1=O`, the kinetic solubility is over 62.1 µg/mL.

Take `CCOC(=O)Cc1csc(NC(=O)CC(C)(C)CC(=O)O)n1`: the solubility (kinetic) was over 49.3 µg/mL.

Molecule `CSc1ccccc1C(=O)N1CCc2ccccc2C1` returned a solubility (kinetic) of over 42.5 µg/mL. In turn, `CC(=O)OC(C(=O)NC1CCCCC1)c1ccccc1Cl` (stereo not drawn) registered a solubility (kinetic) of 39.1 µg/mL (≈ 126 µM).

As to `CC(C)(C)c1ccc(OCCCN2CCCC2)cc1`, the kinetic solubility was 28.6 µg/mL (≈ 109 µM).

Consider `Cc1cccc(CC(=O)N2CCCC2)c1`, for which the kinetic solubility amounted to 28.7 µg/mL (≈ 141 µM).

In the case of `C=C(C)CN1CCN(c2ccc(N3C(=O)CCCC3=O)cc2[N+](=O)[O-])CC1`, the solubility (kinetic) is 54 µg/mL (≈ 145 µM).

Take `Oc1ccccc1-c1nc2ccccc2nc1-c1ccccc1`: the kinetic solubility came out at 25.1 µg/mL (≈ 84.1 µM).

Consider `Cc1cc(C)cc(N(CC(=O)N2CCCCCC2)S(C)(=O)=O)c1`, for which the solubility (kinetic) was found to be 48.5 µg/mL (≈ 143 µM). Under `CC(=O)c1cccc(NC(=O)/C(=C/c2ccncc2)NC(=O)c2ccccc2)c1` stands 4.2 µg/mL (≈ 10.9 µM). The molecule `Cc1cc(C(=O)N(C)CC(=O)Nc2ccc(F)c(F)c2F)no1` had a kinetic solubility of over 49.1 µg/mL.

`CCOP(=O)(OCC)C(Nc1ccc(C(=O)O)cc1)c1ccccc1` (stereo not drawn) yielded a kinetic solubility of over 54.5 µg/mL. `Cc1cccc(NC(=O)COC(=O)COc2ccc3c(c2)CCC3)c1` gave a solubility (kinetic) of 5.7 µg/mL (≈ 16.8 µM).

The molecule `O=C(NCCNc1ccc([N+](=O)[O-])cc1)c1ccccc1F` returned a solubility (kinetic) of 3.8 µg/mL (≈ 12.5 µM). This solubility kinetic lies about 1.5-fold lower than the previous one.

Consider `CCN(CC(=O)NC1CC1)S(=O)(=O)c1ccccc1`, for which the kinetic solubility is over 42.4 µg/mL. Turning to `CC(C)CNC(=O)CO/N=C/c1ccccc1Cl`, the solubility (kinetic) is over 40.3 µg/mL. `O=C(COC(=O)c1ccccc1F)NCc1ccc2c(c1)OCO2` yielded a kinetic solubility of 18.1 µg/mL (≈ 54.6 µM). On to `COc1ccc(OCC(=O)NCCNC(=O)c2cccnc2)cc1`, for which the solubility (kinetic) came out at 47.8 µg/mL (≈ 145 µM). `COC(=O)c1cc(Nc2cc(C)c3ccc(O)cc3n2)cc(C(=O)OC)c1`: the solubility (kinetic) is under 0.4 µg/mL. For the molecule `O=C(Nc1cccc(C(=O)Nc2ccc(Cl)cn2)c1)c1ccccc1`, the solubility (kinetic) came out at 0.7 µg/mL (≈ 1.99 µM). For `COc1ccc(S(=O)(=O)Nc2noc3ccccc23)cc1`, the solubility (kinetic) is 42.1 µg/mL (≈ 138 µM). In turn, `COc1ccccc1-n1cc(-c2ccc([N+](=O)[O-])cc2)[nH]c1=S` displayed a kinetic solubility of 0.3 µg/mL (≈ 0.916 µM). Under `CCC(C)N(C)C1CCN(C(=S)Nc2ccc(OC)cc2)CC1` (stereo not drawn) stands over 50.3 µg/mL; under `CCOC(=O)NC(=S)Nc1c(C)n(C)n(-c2ccccc2)c1=O`, over 50.2 µg/mL; under `OCCN1CCN(C(c2cccs2)c2ccc3cccnc3c2O)CC1` (stereo not drawn), 44 µg/mL (≈ 119 µM). In the case of `Cc1cccc(C(=O)OC2CCCN(C)C2)c1C.Cl` (stereo not drawn), the kinetic solubility amounted to 36.9 µg/mL. The molecule `CCC(C)C(=O)Nc1ccc(S(=O)(=O)N2CCCC2)cc1` (stereo not drawn) had a kinetic solubility of 42.3 µg/mL (≈ 136 µM).

Values taken from PubChem BioAssay AID1996.
